# Assay results reported in PubChem BioAssay (NCI).
#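 Compound exposure: 48 hours, 5 concentrations, 96-well plates. GI50 = concentration required for 50% inhibition of growth. Definition used: TGI = concentration required for complete inhibition of growth.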
# What was measured:
# Test in all cases: growth of human tumour cells (NCI), 48 h
# HOP-62 NSCLC = test system: HOP-62 NSCLC
# SK-MEL-5 melanoma = test system: SK-MEL-5 melanoma
# UO-31 renal = test system: UO-31 renal
# NCI-H460 lung = test system: NCI-H460 lung
# HCT-116 colon = test system: HCT-116 colon
# CAKI-1 renal = test system: CAKI-1 renal
# SF-295 CNS = test system: SF-295 CNS
# M14 melanoma = test system: M14 melanoma
# TK-10 renal = test system: TK-10 renal
# HCT-15 colon = test system: HCT-15 colon
# HCC-2998 colon = test system: HCC-2998 colon
# CCRF-CEM leukemia = test system: CCRF-CEM leukemia
# DMS 114 small cell lung = test system: DMS 114 small cell lung
# MCF7 breast = test system: MCF7 breast
# K-562 leukemia = test system: K-562 leukemia
# XF 498 CNS = test system: XF 498 CNS
SMILES,TGI (HOP-62 NSCLC),TGI (SK-MEL-5 melanoma),TGI (UO-31 renal),TGI (NCI-H460 lung),TGI (HCT-116 colon),TGI (CAKI-1 renal),TGI (SF-295 CNS),TGI (M14 melanoma),TGI (TK-10 renal),TGI (HCT-15 colon),TGI (HCC-2998 colon),TGI (CCRF-CEM leukemia),TGI (DMS 114 small cell lung),TGI (MCF7 breast),TGI (K-562 leukemia),TGI (XF 498 CNS),GI50 (CCRF-CEM leukemia),GI50 (UO-31 renal),GI50 (HCT-116 colon),GI50 (CAKI-1 renal)
O=C(N/N=C/c1cc(Br)cc(Br)c1[O-])c1ccccc1O.O=C(N/N=C/c1cc(Br)cc(Br)c1[O-])c1ccccc1O.[Zn+2],4.5 µM,2.58 µM,10.6 µM,9.26 µM,13 µM,7.29 µM,5.28 µM,8.3 µM,15 µM,14.4 µM,3.42 µM,–,–,–,–,–,–,–,–,–
COc1cc(C2(c3ncc[nH]3)SSSCC2O)ccc1O (configuration not stated),> 100 µM,> 100 µM,> 100 µM,> 74.7 µM,> 100 µM,> 100 µM,> 100 µM,–,–,> 100 µM,77 µM,> 53.6 µM,52.2 µM,> 100 µM,> 56.5 µM,> 100 µM,–,–,–,–
CCOC(=O)/C(=N/Nc1ccccc1)N1C(=S)C=C(C)NN(C)C1=S,–,> 100 µM,> 100 µM,> 100 µM,> 100 µM,> 100 µM,84.9 µM,> 100 µM,> 100 µM,> 100 µM,> 100 µM,> 100 µM,–,> 100 µM,> 100 µM,–,–,–,–,–
CC(C)C1NC(=O)CC(c2ccccc2)N(N=O)C1c1ccccc1 (configuration not stated),> 100 µM,> 100 µM,> 100 µM,> 100 µM,> 100 µM,> 100 µM,> 100 µM,–,–,> 100 µM,> 100 µM,> 100 µM,> 100 µM,> 100 µM,> 100 µM,> 100 µM,–,–,–,–
Cc1c(N=C/C=C/c2ccccc2)c(=O)n(-c2ccccc2)n1C,95.8 µM,31 µM,> 100 µM,> 100 µM,29.2 µM,> 100 µM,40.6 µM,38.9 µM,> 100 µM,> 100 µM,–,30.1 µM,–,60.5 µM,–,–,–,–,–,–
C/C(=N\NC(=O)c1ccccc1O)c1cccc(/C(C)=N/NC(=O)c2ccccc2O)n1.O=S(=O)([O-])[O-].[Fe+2],> 100 µM,–,> 100 µM,> 100 µM,> 100 µM,> 100 µM,> 100 µM,> 100 µM,> 100 µM,> 100 µM,> 100 µM,5.74 µM,> 100 µM,–,> 100 µM,> 100 µM,1.42 µM,> 100 µM,69.2 µM,> 100 µM
